This note sets out measurements from patent US20230233567A1, “BELVARAFENIB FOR USE IN CANCER TREATMENT” (Hanmi Pharm. Co., Ltd., priority 2020, published 2023).

pIC50, pKi: −log10 of the molar value. Where two headings read alike, the source gives them in different places.

Assay [1] concerns A549 lung adenocarcinoma cell line baring a KRAS mutation. The assay can be described thus: A549 IC50. Type of assay: cell-based. The settings on record: Homo sapiens. The procedure:
(§1) Belvarafenib was evaluated to measure the inhibition capability of RAF monomers and dimers. In Table 12: “A375” refers to the A375 a human melanoma cell line bearing a BRAF^V600E mutation; “IPC298” refers to the IPC298 cutaneous melanoma cell line bearing an NRAS^Q61L mutation; “A549” refers to the A549 lung adenocarcinoma cell line baring a KRAS mutation; “CSFR1” refers to the CSFR1 gene; “DDR1” refers to discoidin domain receptors DDR1; and “DDR2” refers to discoidin domain receptors DDR2. In Table 13: “% P/T−MEK” refers to the ratio of P-MEK and total MEK; “Conc 1” refers to an inhibitor first (lowest) concentration; “Conc 2” refers to an inhibitor second (intermediate) concentration; and “Conc 3” refers to an inhibitor third (highest) concentration. In Table 13, LXH254 refers to a drug having CAS No.: 1800398-38-2 and the following structure: […]

The target of another assay is BRAF^V600E (Homo sapiens, UniProt P15056, V600E). The assay can be described thus: RAF inhibition Ki. Type of assay: biochemical. The method, then: as §1
Chain of BRAF^V600E (P15056 whole entry V600E): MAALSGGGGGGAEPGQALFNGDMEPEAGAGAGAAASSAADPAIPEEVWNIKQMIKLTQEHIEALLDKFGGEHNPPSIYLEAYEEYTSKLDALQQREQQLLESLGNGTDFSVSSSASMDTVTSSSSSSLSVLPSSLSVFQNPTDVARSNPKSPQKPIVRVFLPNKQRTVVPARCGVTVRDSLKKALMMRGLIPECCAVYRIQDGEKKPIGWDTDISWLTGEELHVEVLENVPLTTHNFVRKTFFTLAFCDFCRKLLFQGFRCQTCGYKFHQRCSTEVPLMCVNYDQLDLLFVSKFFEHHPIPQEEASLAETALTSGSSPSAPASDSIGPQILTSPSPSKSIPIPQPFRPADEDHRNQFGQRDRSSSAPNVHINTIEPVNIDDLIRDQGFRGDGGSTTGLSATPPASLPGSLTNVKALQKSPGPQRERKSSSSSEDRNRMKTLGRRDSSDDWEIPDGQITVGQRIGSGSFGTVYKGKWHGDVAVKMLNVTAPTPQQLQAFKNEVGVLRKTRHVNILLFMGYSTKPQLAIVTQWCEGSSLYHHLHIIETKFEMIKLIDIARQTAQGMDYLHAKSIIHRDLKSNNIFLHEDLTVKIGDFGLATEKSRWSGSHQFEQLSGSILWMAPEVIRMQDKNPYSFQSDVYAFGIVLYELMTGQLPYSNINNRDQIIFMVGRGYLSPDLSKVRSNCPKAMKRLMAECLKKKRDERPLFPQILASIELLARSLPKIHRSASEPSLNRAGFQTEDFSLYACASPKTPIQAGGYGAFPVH
A further assay concerns the target CRAF (Homo sapiens, UniProt P04049, Y340D/Y341D). The assay can be described thus: RAF inhibition Ki. Type of assay: biochemical. The procedure:
as §1

A further assay has as its target BRAF (Homo sapiens, UniProt P15056). The assay can be described thus: RAF inhibition Ki. In kind it is biochemical. The method, then:
as §1

The test system of the next assay is HCT116 (KRAS^G13D). The assay can be described thus: In vitro cell growth inhibition, CRC. Type of assay: cell-based. The note with it: Homo sapiens, HCT-116.
The test system of assay [2] is MEK and ERK phosphorylation in A375 (BRAF^V600E) cells. Put plainly: Inhibition of MEK and ERK phosphorylation. In kind it is cell-based. The settings on record: Homo sapiens.

Chain of BRAF (P15056 whole entry): as the sequence (P15056 whole entry V600E) above, with E600V counted along it
Chain of CRAF (P04049 306-648 Y340D/Y341D): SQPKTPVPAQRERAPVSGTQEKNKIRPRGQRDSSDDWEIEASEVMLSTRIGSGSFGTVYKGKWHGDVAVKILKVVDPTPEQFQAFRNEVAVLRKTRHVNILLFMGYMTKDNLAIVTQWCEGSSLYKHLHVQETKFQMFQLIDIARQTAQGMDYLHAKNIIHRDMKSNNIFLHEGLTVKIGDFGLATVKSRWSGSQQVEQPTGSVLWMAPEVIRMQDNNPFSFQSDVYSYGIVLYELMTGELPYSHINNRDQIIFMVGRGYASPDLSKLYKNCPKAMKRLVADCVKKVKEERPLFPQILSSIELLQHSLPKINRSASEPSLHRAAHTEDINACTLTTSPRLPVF

For the compound `Cc1ccc2c(Nc3cccc(Cl)c3F)nccc2c1NC(=O)c1csc2c(N)ncnc12` [Belvarafenib], the pIC50 in assay [1] was 6.24; in assay [2] (A-375, read-out: IC50 pERK) it was more than 9.00; in assay [2] (A-375, read-out: IC50 pMEK) it was 7.38. Moreover, the negative-log Ki (pKi) at BRAF^V600E was 8.70; on CRAF it was 8.70; on BRAF, 7.39. In the assay with HCT116 (KRAS^G13D), this compound yielded a concentration for 50% growth inhibition (GI50) of 177 nM.
